Laboratory results reported in EP4635950A1, “NOVEL CRYSTAL FORM OF GLP-1 RECEPTOR AGONIST, METHOD FOR PREPARING SAME, PHARMACEUTICAL COMPOSITION THEREOF, AND USE THEREOF” (Hangzhou Zhongmeihuadong Pharmaceutical Co., Ltd., priority 2022, dated 2024).
Converted amounts (≈) assume the structure as drawn. Like-named read-outs stand apart in the source and are kept apart here.

Assays:
Human GLP-1R = target: T1, Human GLP-1R (Homo sapiens, UniProt P43220); experiment: GLP-1R agonistic activity, HTRF cAMP assay in 293A GFP-GLP-1R cells; format: cell-based; settings: cAMP pathway
T1 construct: expressed in transfected cells; host or cells: 293A cells stably expressing GLP-1R-GFP
Description: The method was a competitive immunoassay.

[1] = Hygroscopicity by dynamic vapor sorption (DVS) at 25°C; format: physicochemical
[2] = High-humidity stability at 90% RH (HPLC purity, crystal form); format: physicochemical; settings: for Purity (% Area) / purity decrease: 90% RH; for Initial Purity (% Area): before storage
Description: [table] […] Table E-5: Results of High-Humidity Stability Determination

[3] = Pressure stability at 1000 Mpa for 5 minutes (HPLC purity, crystal form); format: physicochemical; settings: for Purity (% Area) / purity decrease: 1000 Mpa, 5 min; for Initial Purity (% Area): before pressing
Description: [table] […] Table E-6: Results of Pressure Stability Determination

[4] = Solid-state stability under long-term and accelerated conditions (HPLC purity, crystal form); format: physicochemical; settings: for Purity (% Area) / purity decrease: 10 days; for crystal form change: before and after testing, long-term and accelerated conditions; for Initial Purity (% Area): before storage
Description: [table] […] Table E-3: Results of Solid-State Stability Determination

[5] = Suspension competition test of Crystal Form A and Crystal Form G; format: physicochemical; settings: Crystal Form A and Crystal Form G in EtOH and a mixture of MeOH and water, room temperature and 50°C
[6] = Crystal form stability on drying or sealed storage; format: physicochemical; settings: dried at 50°C for 3 hours
Description: The 4 metastable crystal forms described in Example 4 had lower crystal form stability than each crystal form described in Example 3.

[7] = Equilibrium solubility, 24 hours at 37°C in 4 media, with XRPD of residual solid; format: physicochemical; settings: for Whether the Crystal Form Changed: 24 h in FaSSGF; for solubility at 24 h: 37 °C, thermodynamic from solid, read-out: Solubility after 24 h; for Crystal Form: XRPD
Procedure: After 24 hours, samples were taken and centrifuged for separation. The obtained solids were tested by XRPD, and the supernatants were filtered for solubility testing.

[8] = High-temperature stability at 60°C (HPLC purity, crystal form); format: physicochemical; settings: for Purity (% Area) / purity decrease: 60°C; for Initial Purity (% Area): before storage
Description: [table] […] Table E-4: Results of High-Temperature Stability Determination

[9] = accelerated conditions (40°C/75% RH)
[10] = long-term conditions (25°C/60% RH)

T1 sequence (P43220 24-463): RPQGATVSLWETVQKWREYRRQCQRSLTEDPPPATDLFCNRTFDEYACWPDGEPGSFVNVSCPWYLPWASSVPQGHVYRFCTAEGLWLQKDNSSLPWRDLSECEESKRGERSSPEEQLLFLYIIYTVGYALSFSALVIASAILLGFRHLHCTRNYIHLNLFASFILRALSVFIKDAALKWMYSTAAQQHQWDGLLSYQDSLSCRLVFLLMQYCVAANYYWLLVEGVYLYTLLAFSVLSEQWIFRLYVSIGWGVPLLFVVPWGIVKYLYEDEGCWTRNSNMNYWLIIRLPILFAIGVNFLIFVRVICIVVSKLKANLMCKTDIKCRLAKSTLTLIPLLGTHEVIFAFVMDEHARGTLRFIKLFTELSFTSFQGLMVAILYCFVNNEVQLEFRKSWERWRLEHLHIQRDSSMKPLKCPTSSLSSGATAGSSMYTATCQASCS

Sample Weight Change at 80% RH (%) [1] | Purity (% Area) ([2]; 1 Day) | purity decrease ([2]; 1 day) | Purity (% Area) ([2]; 10 days) | purity decrease ([2]; 10 days) | Initial Purity (% Area) [2] | Purity (% Area) [3] | purity decrease [3] | Initial Purity (% Area) [3] | Purity (% Area) ([4]; 25°C/60%RH) | Purity (% Area) ([4]; 40°C/75%RH) | purity decrease [4, 9] | crystal form change [4] | Initial Purity (% Area) [4] | purity decrease [4, 10] | outcome of suspension competition test [5] | crystal form change after drying [6] | Whether the Crystal Form Changed [7] | Solubility after 24 h ([7]; FaSSGF) | Crystal Form ([7]; solid after 24 h in FaSSGF) | SMILES | also measured
 |  |  |  |  |  |  |  |  |  |  |  |  |  |  |  |  |  |  |  | O=C(O)c1ccc2nc(CN3CCC(c4cccc(OCc5ccc(C6COC6)cc5F)n4)CC3)n(C[C@@H]3CCO3)c2c1 [Compound 1, (S)-2-((4-(6-((2-fluoro-4-(oxetan-3-yl)benzyl)oxy)pyridin-2-yl)piperidin-1-yl)methyl)-1-(oxetan-2-ylmethyl)-1H-benzo[d]imidazole-6-carboxylic acid] | agonistic effect on GLP-1R (Human GLP-1R): strong agonistic effect
0.89% | 97.77 % Area | about 0.3% | 97.07 % Area | about 1.0% | 98.11 % Area | 97.44 % Area | about 0.7% | 98.11 % Area | 97.50 % Area | 97.33 % Area | about 0.8% | no crystal form change was observed | 98.11 % Area | about 0.6% | transforms into Crystal Form G | no crystal form change is observed | YES | 200 µg/mL (≈ 341 µM) | a hydrochloride salt was formed | O=C(O)c1ccc2nc(CN3CCC(c4cccc(OCc5ccc(C6COC6)cc5F)n4)CC3)n(C[C@@H]3CCO3)c2c1 [Crystal Form A, (S)-2-((4-(6-((2-fluoro-4-(oxetan-3-yl)benzyl)oxy)pyridin-2-yl)piperidin-1-yl)methyl)-1-(oxetan-2-ylmethyl)-1H-benzo[d]imidazole-6-carboxylic acid] | solubility at 24 h ([7]; FaSSIF (fasted-state simulated intestinal fluid), fassif, FaSSIF): 50 µg/mL (≈ 85.2 µM); solubility at 24 h ([7]; FeSSIF (fed-state simulated intestinal fluid), fessif, FeSSIF): 320 µg/mL (≈ 545 µM); solubility at 24 h ([7]; purified water, water, H2O): < 100 µg/mL; Crystal Form ([7]; solid after 24 h in FaSSIF): Crystal Form A; Crystal Form ([7]; solid after 24 h in FeSSIF): Crystal Form A; Crystal Form ([7]; solid after 24 h in H2O): Crystal Form A; Purity (% Area) ([8]; 1 day): 98.00 % Area; purity decrease ([8]; 1 day): about 0.1%; Purity (% Area) ([8]; 10 days): 96.98 % Area; purity decrease ([8]; 10 days): about 1.1%; Initial Purity (% Area) [8]: 98.11 % Area
0.73% | 97.67 % Area | about 0.1% | 96.53 % Area | about 1.3% | 97.81 % Area | 97.65 % Area | about 0.2% | 97.81 % Area | 97.37 % Area | 97.43 % Area | about 0.4% | no crystal form change was observed | 97.81 % Area | about 0.4% | thermodynamically more stable | no crystal form change is observed | YES | <10 µg/mL | a hydrochloride salt was formed | O=C(O)c1ccc2nc(CN3CCC(c4cccc(OCc5ccc(C6COC6)cc5F)n4)CC3)n(C[C@@H]3CCO3)c2c1 [Crystal Form G, (S)-2-((4-(6-((2-fluoro-4-(oxetan-3-yl)benzyl)oxy)pyridin-2-yl)piperidin-1-yl)methyl)-1-(oxetan-2-ylmethyl)-1H-benzo[d]imidazole-6-carboxylic acid] | Solubility after 24 h ([7]; FaSSIF): 80 µg/mL (≈ 136 µM); Solubility after 24 h ([7]; FeSSIF): 270 µg/mL (≈ 460 µM); Crystal Form ([7]; solid after 24 h in FaSSIF): Crystal Form G; Crystal Form ([7]; solid after 24 h in FeSSIF): Crystal Form G; Crystal Form ([7]; solid after 24 h in H2O): Crystal Form G; Purity (% Area) ([8]; 1 day): 97.55 % Area; purity decrease ([8]; 1 day): about 0.3%; Purity (% Area) ([8]; 10 days): 96.63 % Area; purity decrease ([8]; 10 days): about 1.2%; Initial Purity (% Area) [8]: 97.81 % Area
